Results as given in US9198906B2, “Ketoconazole enantiomer in humans” (Cortendo AB (publ), priority 2006, dated 2015).

How the values were obtained:
[1] = tested on: patients with type 2 diabetes mellitus; assay: Phase 2a trial, HbA1c (glycemic control); format: in vivo, human
Method: (§1) Five (5) dose groups were studied.
(§2) The first dose of the study drug was given on Day 1 at 2200 h. Activity markers measured on Day 1 prior to administration of the drug (“Visit 1”). The last dose of study drug was given on Day 14 at 2200 h and activity markers measured on Day 15 (“Visit 3”). Measurements of safety markers were taken on Visits 1 and 3, as well as Visit 2 (Day 8) and Visit 4 (Day 28).
This test measure levels of glycated hemoglobin and reflects the average blood glucose level for a subject over the preceding 3 months (approximately). Elevated levels are common in diabetics. Lowering the hemoglobin A1c number can delay or prevent the development of serious eye, kidney, and nerve disease in individuals with diabetes.

healthy volunteers = conditions: published reports, e.g. Morganroth et al. 1997; cited from earlier work
[2] = tested on: patients with type 2 diabetes mellitus; assay: Phase 2a trial, continuous blood pressure monitoring; format: in vivo, human; conditions: Visits 1 and 3, 14 daily doses
Method: as §1
Continuous blood pressure monitoring was performed during Visits 1 and 3.

[3] = tested on: patients with type 2 diabetes mellitus; assay: Phase 2a trial, total cholesterol; format: in vivo, human
Method: as §1, §2

[4] = tested on: patients with type 2 diabetes mellitus; assay: Phase 2a trial, fructosamine (glycemic control); format: in vivo, human
Method: as §1, §2
Fructosamine levels were measured at baseline and after two weeks of therapy (see Table 4 and FIGS. 1 and 2). […] Fructosamine levels reflect blood glucose levels over the preceding 2-3 weeks.

[5] = tested on: patients with type 2 diabetes mellitus; assay: Phase 2a trial, liver function tests (AST/ALT/AP); conditions: Subject 04-016, KTZ 400 mg
Method: as §2

[6] = tested on: patients with type 2 diabetes mellitus; assay: Phase 2a trial, C-reactive protein (marker of inflammation); format: in vivo, human
Method: as §1, §2

[7] = tested on: patients with type 2 diabetes mellitus; assay: Phase 2a trial, LDL cholesterol; format: in vivo, human
Method: as §1, §2

[8] = plasma; Beagle dogs, racemic ketoconazole 30 mg/dog intravenous bolus
Method: The pharmacokinetics of each of the ketoconazole enantiomers was studied following intravenous administration of racemic ketoconazole. Racemic ketoconazolewas dissolved in ethanol to 60 mg/ml. Each of three Beagle dogs was administered 0.5 ml bolus (30 mg/dog) intravenously.
Blood was collected from each dog prior to dosing (“0 min”) and at 2, 5, 10, 15, 30 min, and 1, 2, 4, 6, 8, and 24 hrs post-dosing. At each timepoint, blood (0.3 mL/sample) was collected and placed into labeled Microtainer® tubes with heparin as the anti-coagulant. The heparinized blood was centrifuged, and the supernatant pipetted off into another set of labeled Eppendorf® tubes. The derived plasma samples were analyzed for each of the two ketoconazole enantiomers (2S,4R and 2R,4S) and pharmacokinetic parameters determined for each of the enantiomers.

[9] = 400 mg po QD, 14 daily doses, Visit 3 (Day 15)
[10] = 400 mg po QD group, Visit 1 (baseline, before first dose)

CC(=O)N1CCN(c2ccc(OCC3COC(Cn4ccnc4)(c4ccc(Cl)cc4Cl)O3)cc2)CC1 (racemic) [KTZ, 1-acetyl-4-[4-[[2-(2,4-dichlorophenyl)-2-[(1H-imidazol-1-yl)-methyl]-1,3-dioxolan-4-yl]methoxy]phenyl]piperazine, reference compound]
Visit 1 HbA1c mean ([1]; 400 mg po QD group, Visit 1 (Day 1, before first dose, baseline)): 8.05% | HbA1c Change vs Baseline mean ([1]; 400 mg po QD, 14 daily doses): −0.37% | Visit 3 HbA1c mean [1, 9]: 7.68% | effect on QTc interval (healthy volunteers): does not increase | effect on blood pressure readings [2]: no reductions | Total cholesterol Visit 1 mean [3, 10]: 198.14 mg/dL | Total cholesterol Change mean ([3]; 400 mg po QD, 14 daily doses): -33.57 mg/dL | Total cholesterol Mean % change ([3]; 400 mg po QD, 14 daily doses): −15.46% | Total cholesterol Visit 3 mean [3, 9]: 164.57 mg/dL | Fructosamine Visit 1 mean [4, 10]: 272.57 µmol/L | Fructosamine Change vs Baseline mean ([4]; 400 mg po QD, 14 daily doses): -2.29 µmol/L | Fructosamine Visit 3 mean [4, 9]: 270.29 µmol/L | ALT ([5]; Screening Visit): 28 u/L | AP ([5]; Screening Visit): 110 u/L | AST ([5]; Screening Visit): 33 u/L | ALT ([5]; Visit 1 (pre-1st dose)): 37 u/L | AP ([5]; Visit 1 (pre-1st dose)): 109 u/L | AST ([5]; Visit 1 (pre-1st dose)): 53 u/L | ALT ([5]; Visit 2): 19 u/L | AP ([5]; Visit 2): 137 u/L | AST ([5]; Visit 2): 36 u/L | ALT ([5]; Visit 3 (last dose)): 18 u/L | AP ([5]; Visit 3 (last dose)): 103 u/L | AST ([5]; Visit 3 (last dose)): 31 u/L | C-Reactive Protein (CRP) Visit 1 mean [6, 10]: 2.28 mg/L | CRP Mean % change vs baseline ([6]; 400 mg po QD, 14 daily doses): 9.78% | C-Reactive Protein (CRP) Visit 3 mean [6, 9]: 2.22 mg/L | effect on CRP ([6]; 14 daily doses): did not reduce CRP levels and actually led to an increase in CRP | LDL cholesterol Visit 1 mean [7, 10]: 118.71 mg/dL | LDL cholesterol Mean % change ([7]; 400 mg po QD, 14 daily doses): −24.73% | LDL cholesterol change mean ([7]; 400 mg po QD, 14 daily doses): -30.43 mg/dL | LDL cholesterol Visit 3 mean [7, 9]: 88.29 mg/dL

CC(=O)N1CCN(c2ccc(OC[C@H]3CO[C@](Cn4ccnc4)(c4ccc(Cl)cc4Cl)O3)cc2)CC1 (single isomer, unassigned) [2R,4S ketoconazole enantiomer, reference compound]
clearance [8]: 24.03 mL/min/kg | terminal half life [8]: 55.8 min
